In patent publication US20070292483A1, “REDUCING MUSCLE SORENESS WITH GLUCOSAMINE COMPOSITIONS” (Stokely-Van Camp, Inc., priority 2006, published 2007):

Assay: storage study of relatively neutral pH beverage compositions containing glucosamine
Assay type: physicochemical
Procedure: Special considerations in packaging, shipping, and or formulations may also be considered when delivering a targeted amount of glucosamine in the beverage compositions. As an example, shake-type beverages, such as the beverage composition provided in Table 3, are generally formulated to have a relatively neutral pH value.
Such a formulation was determined to deliver 1,500 mg of glucosamine based on results from a storage study. During the study, in which such beverages were stored for a period of 12 months at ambient (73 degrees Fahrenheit) temperature, it was determined that approximately 77% of glucosamine originally present had degraded during a 12 month storage period. Thus, information regarding the average shelf-life and/or delivery mechanisms for specific products may be utilized when formulating the beverage compositions. Such factors may include the temperature, time to consumption, packaging the compositions are stored within, among others.

## N[C@H]1C(O)O[C@H](CO)[C@@H](O)[C@@H]1O (some centres unmarked) [glucosamine]
Relatively neutral pH beverage, around about 20 mg/ml glucosamine, stored 12 months at ambient (73 degrees Fahrenheit) temperature
  glucosamine originally present that had degraded during storage: approximately 77%

## Cl.N[C@H]1C(O)O[C@H](CO)[C@@H](O)[C@@H]1O (some centres unmarked) [Glucosamine hydrochloride, glucosamine hydrochloride]
Formulated in beverages having neutral pHs (shake-type)
  degradation rate in beverage: degrades at a quickened rate
